Experimental data reported in US8148391B2 (Cephalon, Inc., priority 2006, dated 2012).
Where two headings read alike, the source gives them in different places.

What was measured:
[1] = biological target: T1, baculovirus-expressed ALK (Homo sapiens, UniProt Q9UM73); test: ALK Kinase Assay (ELISA-type, time-resolved fluorescence); type: biochemical
T1 construct: host or cells: baculovirus expression system
Summary of the method: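 Substrate coating: phospholipase C-γ, 10 μg/mL in TBS. Kinase step: 30 ng/ml ALK, 15 min, 37° C. Detection and analysis: Eu-N1 PT66 antibody, with IC50 fitted as a sigmoidal variable-slope dose-response curve.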

[2] = biological target: T2, c-Met (cytoplasmic domain) (Homo sapiens, UniProt P08581); test: c-Met Kinase Assay (same methods as for ALK, with modifications); type: biochemical
T2 construct: 10 ng/mL c-Met (cytoplasmic domain, Invitrogen Corporation #PV3143); purchased Invitrogen Corporation PV3143
Summary of the method: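 This plate-based kinase format uses immobilized phospholipase C-γ as substrate, phosphorylated by c-Met cytoplasmic domain (10 ng/mL) at 37° C for 15 minutes.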

[3] = ALK kinase inhibition, 1 μM ATP, read-out: ALK Activity
[4] = c-Met kinase inhibition, 1 μM ATP, read-out: cMet Activity
[5] = 1 μM ATP (Km level), read-out: ALK Activity (ALK Kinase Inhibition, IC50)
[6] = 1 μM ATP (Km level), read-out: cMet Activity (c-Met Kinase Inhibition, IC50)
[7] = 1 μM ATP (Km level), 30 ng/ml ALK, 37° C., 15 minutes, read-out: ALK Activity (ALK kinase inhibition, IC50 class)
[8] = 1 μM ATP (Km level), 10 ng/mL c-Met, read-out: cMet Activity (c-Met kinase inhibition, IC50 class)
[9] = ALK kinase inhibition, 1 μM ATP (Km level), read-out: ALK Activity
[10] = c-Met kinase inhibition, 1 μM ATP (Km level), read-out: cMet Activity

T2 sequence (P08581 956-1390 limits assumed): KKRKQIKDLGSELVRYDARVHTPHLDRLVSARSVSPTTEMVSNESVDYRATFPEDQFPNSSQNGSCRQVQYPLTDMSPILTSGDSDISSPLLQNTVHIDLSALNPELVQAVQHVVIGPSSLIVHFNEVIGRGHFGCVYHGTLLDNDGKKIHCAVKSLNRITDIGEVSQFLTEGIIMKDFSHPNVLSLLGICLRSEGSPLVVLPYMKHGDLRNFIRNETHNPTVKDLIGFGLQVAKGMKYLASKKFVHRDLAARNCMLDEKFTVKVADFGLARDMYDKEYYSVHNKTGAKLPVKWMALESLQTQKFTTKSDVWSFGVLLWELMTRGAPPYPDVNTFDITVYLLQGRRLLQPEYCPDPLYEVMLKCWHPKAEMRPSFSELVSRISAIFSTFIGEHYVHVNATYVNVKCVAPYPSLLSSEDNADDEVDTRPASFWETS
T1 sequence (Q9UM73 19-1620): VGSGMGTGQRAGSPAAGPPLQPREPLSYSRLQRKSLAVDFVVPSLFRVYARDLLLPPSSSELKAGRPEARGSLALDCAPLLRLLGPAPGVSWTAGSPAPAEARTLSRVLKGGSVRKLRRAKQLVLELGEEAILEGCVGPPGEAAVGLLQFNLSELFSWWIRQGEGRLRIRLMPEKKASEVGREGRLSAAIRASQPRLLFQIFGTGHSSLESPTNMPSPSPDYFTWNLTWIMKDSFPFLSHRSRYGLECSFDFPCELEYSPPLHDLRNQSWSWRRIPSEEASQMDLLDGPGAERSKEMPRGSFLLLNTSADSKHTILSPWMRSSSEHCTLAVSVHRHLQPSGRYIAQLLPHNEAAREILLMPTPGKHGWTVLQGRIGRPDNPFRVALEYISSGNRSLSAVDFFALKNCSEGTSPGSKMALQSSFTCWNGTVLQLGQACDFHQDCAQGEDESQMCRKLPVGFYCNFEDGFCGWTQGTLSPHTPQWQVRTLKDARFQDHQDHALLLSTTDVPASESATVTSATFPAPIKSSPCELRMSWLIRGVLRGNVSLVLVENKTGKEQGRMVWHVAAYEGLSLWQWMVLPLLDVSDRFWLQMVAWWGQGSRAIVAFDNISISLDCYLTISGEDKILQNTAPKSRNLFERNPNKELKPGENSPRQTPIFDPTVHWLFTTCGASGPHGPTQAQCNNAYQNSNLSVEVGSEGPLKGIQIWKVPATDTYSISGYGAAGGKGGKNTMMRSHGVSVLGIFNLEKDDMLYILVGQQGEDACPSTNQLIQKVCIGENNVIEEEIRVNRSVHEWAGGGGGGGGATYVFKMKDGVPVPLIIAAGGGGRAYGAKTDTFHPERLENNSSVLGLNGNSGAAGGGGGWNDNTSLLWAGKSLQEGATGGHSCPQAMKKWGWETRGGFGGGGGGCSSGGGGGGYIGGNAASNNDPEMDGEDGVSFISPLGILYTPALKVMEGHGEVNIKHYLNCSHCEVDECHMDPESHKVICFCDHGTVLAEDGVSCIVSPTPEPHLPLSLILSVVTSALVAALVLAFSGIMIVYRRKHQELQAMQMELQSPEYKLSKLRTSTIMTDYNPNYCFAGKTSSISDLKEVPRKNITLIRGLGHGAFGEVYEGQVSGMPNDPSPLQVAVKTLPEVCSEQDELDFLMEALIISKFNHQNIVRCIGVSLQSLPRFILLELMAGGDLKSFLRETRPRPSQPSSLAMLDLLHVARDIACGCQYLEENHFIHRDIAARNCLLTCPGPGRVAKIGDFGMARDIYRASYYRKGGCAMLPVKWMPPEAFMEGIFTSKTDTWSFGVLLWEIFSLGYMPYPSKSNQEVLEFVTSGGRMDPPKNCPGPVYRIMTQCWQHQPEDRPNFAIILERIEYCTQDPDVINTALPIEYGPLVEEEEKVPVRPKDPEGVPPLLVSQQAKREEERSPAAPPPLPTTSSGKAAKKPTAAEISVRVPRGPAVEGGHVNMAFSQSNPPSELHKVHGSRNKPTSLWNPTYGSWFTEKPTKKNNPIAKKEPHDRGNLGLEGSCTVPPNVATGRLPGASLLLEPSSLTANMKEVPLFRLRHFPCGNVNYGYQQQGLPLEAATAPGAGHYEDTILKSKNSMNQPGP

C#CCNC(=O)c1cccc(F)c1Nc1nc(Nc2ccc3c(c2)N(CC)CCCC3(C)C)ncc1Cl [Example 1633, 2-[5-Chloro-2-(1-ethyl-5,5-dimethyl-2,3,4,5-tetrahydro-1H-benzo[b]azepin-8-ylamino)-pyrimidin-4-ylamino]-3-fluoro-N-prop-2-ynyl-benzamide]
IC50 [1, 3]: 0.1 to 1 µM | IC50 [2, 4]: 0.1 to 1 µM

COc1c(Nc2ncc(Cl)c(N[C@H]3[C@@H](C(N)=O)[C@@H]4C=C[C@H]3C4)n2)ccc2c1CCCC(N1CCOCC1)C2 (single isomer, unassigned) [Example 940]
IC50 [1, 5]: < 0.1 µM | IC50 ([2]; cMet Activity (c-Met Kinase Inhibition, IC50), 1 μM ATP (Km level)): > 10 µM

COc1cc2c(cc1Nc1ncc(Cl)c(Nc3ccc(C)cc3S(=O)(=O)N(C)C)n1)CCN(CC(=O)N(C)C)CC2 [Example 830, 2-{7-[5-Chloro-4-(2-dimethylsulfamoyl-4-methyl-phenylamino)-pyrimidin-2-ylamino]-8-methoxy-1,2,4,5-tetrahydro-benzo[d]azepin-3-yl}-N,N-dimethyl-acetamide]
IC50 [1, 5]: < 0.1 µM | IC50 [2, 6]: > 10 µM

CC(C)S(=O)(=O)c1cccc(F)c1Nc1nc(Nc2ccc3c(c2)NC(=O)CCC3)ncc1Cl [Example 1255, 8-{5-Chloro-4-[2-fluoro-6-(propane-2-sulfonyl)-phenylamino]-pyrimidin-2-ylamino}-1,3,4,5-tetrahydro-1-benzazepin-2-one]
IC50 [1, 7]: 0.1 to 1 µM | IC50 [2, 8]: 1 to 10 µM

CNC(=O)c1cccc(Nc2nc(Nc3ccc4c(c3)C(C)(C)CCC(=O)N4C)ncc2Cl)c1 [Example 670, 3-[5-Chloro-2-(1,5,5-trimethyl-2-oxo-2,3,4,5-tetrahydro-1H-benzo[b]azepin-7-ylamino)-pyrimidin-4-ylamino]-N-methyl-benzamide]
IC50 [1, 5]: < 0.1 µM | IC50 [2, 6]: 1 to 10 µM

CC(=O)N1CCC(=O)NCc2cc(Nc3ncc(Cl)c(Nc4c(C)cccc4OCC#N)n3)ccc21 [Example 1246, {2-[2-(1-Acetyl-4-oxo-1,2,3,4,5,6-hexahydro-benzo[b][1,5]diazocin-8-ylamino)-5-chloro-pyrimidin-4-ylamino]-3-methyl-phenoxy}-acetonitrile]
IC50 [1, 7]: 0.1 to 1 µM | IC50 [2, 8]: < 0.1 µM

CCN1CCc2ccc(Nc3ncc(Br)c(Nc4ccccc4C(=O)NC)n3)cc2CC1 [Example 192, 2-[2-(3-Ethyl-2,3,4,5-tetrahydro-1H-benzo[d]azepin-7-ylamino)-5-bromo-pyrimidin-4-ylamino]-N-methyl-benzamide]
IC50 [1, 9]: < 0.1 µM | IC50 [2, 10]: < 0.1 µM

CNC(=O)c1sccc1Nc1nc(Nc2ccc3c(c2)NC(=O)C(NC(C)=O)CC3(C)C)ncc1Cl (stereo not shown) [Example 1291, 3-[2-(3-Acetylamino-5,5-dimethyl-2-oxo-2,3,4,5-tetrahydro-1H-1-benzazepin-8-ylamino)-5-chloro-pyrimidin-4-ylamino]-thiophene-2-carboxylic acid methylamide]
IC50 [1, 7]: 1 to 10 µM | IC50 [2, 8]: < 0.1 µM

COCCN1CCc2ccc(Nc3ncc(Cl)c(Nc4ccc(N5CCOCC5)cc4OCCC#N)n3)cc2CC1 [Example 1689, 3-(2-{5-Chloro-2-[3-(2-methoxy-ethyl)-2,3,4,5-tetrahydro-1H-benzo[d]azepin-7-ylamino]-pyrimidin-4-ylamino}-5-morpholin-4-yl-phenoxy)-propionitrile]
IC50 [1, 3]: < 0.1 µM | IC50 [2, 4]: 1 to 10 µM

CNC(=O)c1cccc(F)c1Nc1nc(Nc2ccc3c(c2)N(C(=O)CN2C(=O)c4ccccc4C2=O)CCCC3(C)C)ncc1Cl [Example 1616, 2-(5-Chloro-2-{1-[2-(1,3-dioxo-1,3-dihydro-isoindol-2-yl)-acetyl]-5,5-dimethyl-2,3,4,5-tetrahydro-1H-benzo[b]azepin-8-ylamino}-pyrimidin-4-ylamino)-3-fluoro-N-methyl-benzamide]
IC50 [1, 3]: 0.1 to 1 µM | IC50 [2, 4]: 0.1 to 1 µM

CCN1CCc2ccc(Nc3ncc(Cl)c(N[C@H]4CCC[C@H]4C(N)=O)n3)cc2CC1 (relative stereo) [Example 176, Cis-2-[5-Chloro-2-(3-ethyl-2,3,4,5-tetrahydro-1H-benzo[d]-azepin-7-ylamino)-pyrimidin-4-ylamino]-cyclopentanecarboxylic acid amide]
IC50 [1, 9]: 0.1 to 1 µM | IC50 [2, 10]: 1 to 10 µM

CNC(=O)c1ccccc1Nc1nc(Nc2ccc3c(c2)N(C)CCN(CCOC)C3)ncc1Cl [Example 484, 2-{5-Chloro-2-[4-(2-methoxy-ethyl)-1-methyl-2,3,4,5-tetrahydro-1H-benzo[e][1,4]diazepin-8-ylamino]-pyrimidin-4-ylamino}-N-methyl-benzamide]
IC50 [1, 9]: < 0.1 µM | IC50 [2, 10]: < 0.1 µM

COCCOc1cccc(F)c1Nc1nc(Nc2ccc3c(c2)NC(=O)CCC3)ncc1Cl [Example 1695, 8-{5-Chloro-4-[2-fluoro-6-(2-methoxy-ethoxy)-phenylamino]-pyrimidin-2-ylamino}-1,3,4,5-tetrahydro-benzo[b]azepin-2-one]
IC50 [1, 3]: 0.1 to 1 µM | IC50 [2, 4]: 0.1 to 1 µM

N-{(1R,2R)-2-[2-(12-sec-Butyl-12-aza-tricyclo[7.2.1.0*2,7*]dodeca-2(7),3,5-trien-4-ylamino)-5-chloro-pyrimidin-4-ylamino]-cyclohexyl}-methanesulfonamide [Example 85]
IC50 [1, 9]: < 0.1 µM | IC50 [2, 10]: 0.1 to 1 µM

CCN1C(=O)[C@@H](N(C)C)CCc2c1ccc(Nc1ncc(Cl)c(N[C@H]3[C@@H](C(N)=O)[C@@H]4C=C[C@H]3C4)n1)c2OC (single isomer, unassigned) [Example 1347]
IC50 [1, 7]: < 0.1 µM | IC50 [2, 8]: 1 to 10 µM

CCN1CCc2c(Nc3ncc(Cl)c(N[C@@H]4CCCC[C@H]4NS(C)(=O)=O)n3)ccc(OC)c2CC1 [Example 155, N-{(1R,2R)-2-[5-Chloro-2-(3-ethyl-9-methoxy-2,3,4,5-tetrahydro-1H-benzo[d]azepin-6-ylamino)-pyrimidin-4-ylamino]-cyclohexyl}-methanesulfonamide]
IC50 [1, 9]: < 0.1 µM | IC50 [2, 10]: > 10 µM

CNC(=O)c1ccccc1Nc1nc(Nc2ccc3c(c2)N(C)CCNC3)ncc1Cl [Example 417, 2-[5-Chloro-2-(1-methyl-2,3,4,5-tetrahydro-1H-benzo[e][1,4]diazepin-8-ylamino)-pyrimidin-4-ylamino]-N-methylbenzamide]
IC50 [1, 9]: < 0.1 µM | IC50 [2, 10]: < 0.1 µM

CCN1C(=O)C(N)CCc2c1ccc(Nc1ncc(Cl)c(Nc3ccc(N(C)C)cc3OC)n1)c2OC (stereo not shown) [Example 1343, 3-Amino-7-[5-chloro-4-(4-dimethylamino-2-methoxy-phenylamino)-pyrimidin-2-ylamino]-1-ethyl-6-methoxy-1,3,4,5-tetrahydro-benzo[b]azepin-2-one]
IC50 [1, 7]: < 0.1 µM | IC50 [2, 8]: > 10 µM

COCCNC1CCc2ccc(Nc3ncc(Cl)c(N[C@@H]4CCCC[C@H]4NS(C)(=O)=O)n3)c(OC)c2CC1 (single isomer, unassigned) [Example 694]
IC50 [1, 5]: < 0.1 µM | IC50 [2, 6]: > 10 µM

CCN1C(=O)C(N)CCc2c1ccc(Nc1ncc(Cl)c(Nc3ccccc3S(=O)(=O)N(C)C)n1)c2OC (stereo not shown) [Example 1336, 2-[2-(3-Amino-1-ethyl-6-methoxy-2-oxo-2,3,4,5-tetrahydro-1H-benzo[b]azepin-7-ylamino)-5-chloro-pyrimidin-4-ylamino]-N,N-dimethyl-benzenesulfonamide]
IC50 [1, 7]: < 0.1 µM | IC50 [2, 8]: > 10 µM

CN1C(=O)CCCc2cc(Nc3ncc(Cl)c(Nc4ccccc4-c4nc(C(F)(F)F)c[nH]4)n3)ccc21 [Example 1013, 7-{5-Chloro-4-[2-(4-trifluoromethyl-1H-imidazol-2-yl)-phenylamino]-pyrimidin-2-ylamino}-1-methyl-1,3,4,5-tetrahydro-benzo[b]azepin-2-one]
IC50 [1, 5]: 0.1 to 1 µM | IC50 [2, 6]: 1 to 10 µM

CCN1C(=O)CCCc2cc(Nc3ncc(Cl)c(N[C@@H]4CCCC[C@H]4N(C)S(C)(=O)=O)n3)c(OC)cc21 [Example 1678, N-{(1R,2R)-2-[5-Chloro-2-(1-ethyl-8-methoxy-2-oxo-2,3,4,5-tetrahydro-1H-benzo[b]azepin-7-ylamino)-pyrimidin-4-ylamino]-cyclohexyl}-N-methyl-methanesulfonamide]
IC50 [1, 3]: < 0.1 µM | IC50 [2, 4]: 1 to 10 µM

COCCN1C2CCC1c1cc(Nc3ncc(Cl)c(Nc4ccccc4NS(C)(=O)=O)n3)ccc1C2 (stereo not shown) [Example 76, N-(2-{5-Chloro-2-[12-(2-methoxy-ethyl)-12-aza-tricyclo[7.2.1.0*2,7*]dodeca-2(7),3,5-trien-4-ylamino]-pyrimidin-4-ylamino}-phenyl)-methanesulfonamide]
IC50 [1, 9]: < 0.1 µM | IC50 [2, 10]: 0.1 to 1 µM

COCCN1CCc2ccc(Nc3ncc(Cl)c(Nc4cc(C)n[nH]4)n3)cc2CC1 [Example 955, 5-Chloro-N(2)-[3-(2-methoxy-ethyl)-2,3,4,5-tetrahydro-1H-3-benzazepin-7-yl]-N(4)-(5-methyl-2H-pyrazol-3-yl)-pyrimidine-2,4-diamine]
IC50 [1, 5]: 0.1 to 1 µM | IC50 [2, 6]: 1 to 10 µM

COCCNC1CCc2ccc(Nc3ncc(Cl)c(N[C@@H]4CCCC[C@H]4NS(C)(=O)=O)n3)c(OC)c2CC1 (single isomer, unassigned) [Example 693]
IC50 [1, 5]: < 0.1 µM | IC50 [2, 6]: > 10 µM

COc1cc2c(cc1Nc1ncc(Cl)c(N[C@H]3[C@@H](C(N)=O)[C@@H]4C=C[C@H]3C4)n1)CCC(NCCO)CC2 (single isomer, unassigned) [Example 1097]
IC50 [1, 7]: < 0.1 µM | IC50 [2, 8]: > 10 µM
